Among the data in PubChem BioAssay AID2842 (Southern Research Institute, 2010) are IC90 values, retold here.

The subject of the assay is M. tuberculosis H37Rv growth inhibition. The assay can be described thus: Mycobacterium tuberculosis H37Rv growth inhibition, putative kinase inhibitor library, confirmatory dose response (AID 2842).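 Also: bacteria incubated one week before Alamar blue readout.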

Values after ≈ are worked out from the molar mass of the structure shown. Bounds are passed on as bounds.

As to `CC(=O)c1ccc(C(=O)Nc2nnc(-c3cc(Cl)ccc3Cl)o2)cc1`, the IC90 (as a rule, the point of the concentration-response curve where the effect stands at 90%) is 94.4 µg/mL (≈ 251 µM).
Regarding `Cc1ccc2nc(NNC(=O)c3cccc(F)c3)sc2c1`, the IC90 is 7.65 µg/mL (≈ 25.4 µM).
As for `O=C(Nc1nnc(-c2ccc3c(c2)CCCC3)o1)c1ccc([N+](=O)[O-])o1`, the figure is 10.6 µg/mL (≈ 29.9 µM); as for `O=C(Nc1nnc(-c2ccc(F)cc2)o1)c1ccc(Br)s1`, less than 0.2 µg/mL; as for `Cc1ccc(C(=O)Nc2nnc(C3=COCCO3)o2)cc1`, 2.78 µg/mL (≈ 9.68 µM).
Take `N#C/C(=C\c1c(Oc2ccccc2F)nc2ccccn2c1=O)C(N)=O`: the IC90 is 11.4 µg/mL (≈ 32.5 µM).
As for `O=C(Nc1nnc(-c2cccs2)o1)C1=COCCO1`, the figure is 6.18 µg/mL (≈ 22.1 µM); as for `O=C(Nc1nnc(-c2ccncc2)o1)c1cccc(C(F)(F)F)c1`, 28.1 µg/mL (≈ 84.2 µM).
As for `COc1cc2c(=O)c(C(=O)c3ccc(Cl)cc3)cn(Cc3ccccc3F)c2cc1OC`, the figure is 45 µg/mL (≈ 99.5 µM); as for `O=C(Nc1nnc(-c2ccc(Cl)s2)o1)C1CCCCC1`, 6.45 µg/mL (≈ 20.7 µM); as for `COc1ccc(CC(=O)N2CCN=C2SCc2ccc(C(F)(F)F)cc2)cc1`, 23.9 µg/mL (≈ 58.4 µM).
As for `O=C(c1cccs1)N(CCCn1ccnc1)c1nc2c(Cl)cccc2s1`, the figure is 5.18 µg/mL (≈ 12.9 µM); as for `O=C(Nc1nnc(-c2ccc3c(c2)CCCC3)o1)c1ccc([N+](=O)[O-])s1`, 0.68 µg/mL (≈ 1.84 µM); as for `CC(C)(C)c1ccc(C(=O)Nc2nc(-c3ccc4c(c3)OCO4)cs2)cc1`, 6.72 µg/mL (≈ 17.7 µM).
Regarding `CCCCOc1cccc(C(=O)Nc2nnc(-c3cc(Cl)ccc3Cl)o2)c1`, the IC90 was 12.9 µg/mL (≈ 31.8 µM).
As for `OCCOCCNc1nc(Nc2cccc(F)c2)nc2c1cnn2-c1ccccc1`, the figure is 4.91 µg/mL (≈ 12 µM); as for `CCOC(=O)N1CCc2c(sc(NC(=O)c3ccco3)c2-c2nc3ccccc3s2)C1`, 50.2 µg/mL (≈ 111 µM).
In the case of `COc1ccc(OC)c(-c2csc(NC(=O)c3ccc([N+](=O)[O-])o3)n2)c1`, the IC90 is 27.1 µg/mL (≈ 72.2 µM).
The figure for `COc1cccc2sc(Nc3nc(-c4ccc(Cl)s4)cs3)nc12` is 7.28 µg/mL (≈ 19.2 µM); for `CCc1ccc(-c2nnc3c4cc5c(cc4n(Cc4ccc(C)cc4)cc2-3)OCCO5)cc1` it is 15.3 µg/mL (≈ 35 µM); for `O=C1C(Cl)=C(Nc2ccccc2O)C(=O)N1Cc1ccccc1` it is 5.45 µg/mL (≈ 16.6 µM).
For the compound `Cc1ccc(C)c(-c2nnc(NC(=O)c3cc(Cl)ccc3[N+](=O)[O-])o2)c1`, the IC90 is 0.68 µg/mL (≈ 1.82 µM).
As for `Fc1cc(F)c2nc(N3CCCC3)sc2c1`, the figure is 18.2 µg/mL (≈ 76 µM); as for `Cc1ccc(-c2[nH]c3ccccc3c2SCCNC(=O)c2cc3ccccc3oc2=O)cc1`, 4 µg/mL (≈ 8.8 µM); as for `Fc1cccc2sc(N3CCCC3)nc12`, 86.3 µg/mL (≈ 388 µM).
The figure for `COC(=O)c1ccc(C(=O)NNc2nc3ccc(Cl)cc3s2)cc1` is 28.9 µg/mL (≈ 79.8 µM); for `COc1cc(/C=C(\C#N)c2nc(-c3ccc4c(c3)OCO4)cs2)cc([N+](=O)[O-])c1O` it is 37.7 µg/mL (≈ 89.2 µM).
The figure for `O=C(Nc1nnc(-c2ccc(F)cc2)o1)c1cccc(C(F)(F)F)c1` is 11.7 µg/mL (≈ 33.4 µM).
In the case of `O=C(Nc1nnc(-c2ccco2)o1)c1ccccc1F`, the IC90 was 6.69 µg/mL (≈ 24.5 µM).
As for `NC(=O)c1oc2ccccc2c1NC(=O)C1CC(=O)N(c2ccc(Cl)cc2)C1` (stereo unspecified), the figure is 3.15 µg/mL (≈ 7.92 µM); as for `Cc1ccc(-c2nnc(NC(=O)c3ccc([N+](=O)[O-])o3)o2)c(C)c1`, 0.69 µg/mL (≈ 2.1 µM); as for `O=C(Nc1nnc(-c2cc(Cl)ccc2Cl)o1)c1ccc(S(=O)(=O)N2CCOCC2)cc1`, 3.86 µg/mL (≈ 7.99 µM).
The figure for `COc1cc2c3nnc(-c4ccc(C)c(C)c4)c-3cn(Cc3ccc(C)cc3)c2cc1OC` is 1.55 µg/mL (≈ 3.54 µM); for `O=C(Nc1nnc(-c2ccco2)o1)c1cc(Cl)ccc1Cl` it is 4.99 µg/mL (≈ 15.4 µM); for `Cc1cccc(C(=O)Nc2nnc(-c3ccc(C)cc3C)o2)c1` it is 9.06 µg/mL (≈ 29.5 µM).
The figure for `CC(C)N1CCc2c(sc(NC(=O)c3ccc([N+](=O)[O-])s3)c2C(N)=O)C1` is 6.33 µg/mL (≈ 16 µM).
Consider `CC(C)C(=O)Nc1nnc(-c2ccccc2)o1`, for which the IC90 was 3.31 µg/mL (≈ 14.3 µM).
The figure for `CCCCC(=O)Nc1nnc(-c2cc(Cl)ccc2Cl)o1` is 32.4 µg/mL (≈ 103 µM).
The figure for `CN(c1ccccc1)S(=O)(=O)c1ccc(C(=O)Nc2nnc(-c3ccco3)o2)cc1` is 8.33 µg/mL (≈ 19.6 µM); for `CN1CCc2c(sc(NC(=O)c3ccc4ccccc4c3)c2C(N)=O)C1` it is 11.9 µg/mL (≈ 32.5 µM); for `COc1ccc(C)c2sc(NNC(=O)c3cccc(F)c3)nc12` it is 32.6 µg/mL (≈ 98.4 µM).
As for `COc1cccc(Nc2cc(C)nc3c(-c4ccccc4)cnn23)c1`, the figure is 1.83 µg/mL (≈ 5.54 µM); as for `O=C(Nc1ccc(Cl)c(Cl)c1)NC1CC(=O)N(c2cccc(F)c2)C1` (stereo unspecified), 6.41 µg/mL (≈ 16.8 µM).
On to `O=C(Nc1nc(-c2ccc3c(c2)OCCO3)cs1)C1CCCCC1`, for which the IC90 was 11.7 µg/mL (≈ 34 µM).
The figure for `COc1cc(C2C3=C(CC(C)(C)CC3=O)Nc3ncnn32)ccc1OCc1ccc(Cl)c(Cl)c1` (stereo unspecified) is 6.77 µg/mL (≈ 13.6 µM); for `Cc1ccc(C(=O)Nc2nnc(-c3ccncc3)o2)cc1C` it is 26.8 µg/mL (≈ 91 µM).
For `O=C(Nc1nnc(-c2ccc(Cl)s2)o1)C1CC1`, the IC90 was 26.8 µg/mL (≈ 99.3 µM).
`COc1ccc(NC(=O)c2cccc3nc4ccccc4nc23)c(OC)c1`: the IC90 is 4.07 µg/mL (≈ 11.3 µM).
As for `Cc1ccc(NC(=O)c2oc3ccccc3c2NC(=O)CCl)cc1C`, the figure is 10.2 µg/mL (≈ 28.5 µM).
The figure for `CCOc1ccc(NC(=O)c2c(Cl)ccc(Cl)c2Cl)cc1` is 11.7 µg/mL (≈ 34 µM); for `COc1cc2c3nnc(-c4ccc(C)c(C)c4)c-3cn(Cc3ccccc3)c2cc1OC` it is 7.35 µg/mL (≈ 17.4 µM).
Regarding `CCOC(=O)N1CCN(c2ncnc3c2cnn3-c2ccc(C)c(C)c2)CC1`, the concentration for an effect of 90% (IC90) was 9.11 µg/mL (≈ 23.9 µM).
The figure for `O=C(Nc1nnc(-c2ccccc2)o1)c1cc(-c2cccs2)nc2ccccc12` is 0.72 µg/mL (≈ 1.81 µM); for `COc1ccc(-c2ccc(C3C(C#N)=C(N)Oc4n[nH]c(C)c43)o2)cc1` (stereo unspecified) it is 4.92 µg/mL (≈ 14.1 µM).
For `O=C(Nc1nnc(C2=COCCO2)o1)c1cc(Cl)sc1Cl`, the IC90 is 34.1 µg/mL (≈ 98 µM).
The figure for `COc1cccc(NCCCn2c(C)cn3c4c(=O)[nH]c(=O)n(C)c4nc23)c1` is 46.2 µg/mL (≈ 121 µM); for `COc1cccc2sc(Nc3nnc(-c4ccccc4)o3)nc12` it is 6.08 µg/mL (≈ 18.7 µM); for `Cc1ccc2[nH]c(=O)c(C3=NN(C(=O)c4ccco4)C(c4ccco4)C3)c(-c3ccccc3)c2c1` (stereo unspecified) it is 15.4 µg/mL (≈ 33.3 µM).
The figure for `Cc1cc(NC(=O)NCCCSc2nc3ccccc3o2)no1` is 29.1 µg/mL (≈ 87.5 µM); for `COc1ccccc1-c1nnc(NC(=O)Cc2ccc(SC)cc2)o1` it is 52.6 µg/mL (≈ 148 µM); for `CC1CCc2nc(Nc3nc4cc5c(cc4s3)OCO5)sc2C1` (stereo unspecified) it is 14.4 µg/mL (≈ 41.8 µM).
As for `O=C(Nc1nnc(-c2cccs2)o1)c1ccc([N+](=O)[O-])s1`, the figure is 1.69 µg/mL (≈ 5.24 µM); as for `CCCC(=O)Nc1nnc(-c2cc(C)ccc2C)o1`, 2.09 µg/mL (≈ 8.06 µM); as for `c1ccc(CN2CCN(c3nc(Nc4ccccc4)c4nccnc4n3)CC2)cc1`, 5.37 µg/mL (≈ 13.5 µM).
On to `Cc1ccc2sc(NNC(=O)c3coc4ccccc4c3=O)nc2c1C`, for which the IC90 is 34.9 µg/mL (≈ 95.5 µM).
The figure for `Cc1nc2ccccc2c(=O)n1-c1cccc(NC(=O)c2cc([N+](=O)[O-])cc([N+](=O)[O-])c2)c1` is 27.8 µg/mL (≈ 62.5 µM).
The figure for `CC(C)(C)c1ccc(C(=O)Nc2nnc(-c3ccco3)o2)cc1` is 1.18 µg/mL (≈ 3.79 µM); for `Cc1n[nH]c(=O)nc1N/N=C/c1cccc(OCc2ccccc2Cl)c1` it is 35.9 µg/mL (≈ 97.2 µM).
As for `CCc1ccc(-c2nnc3c4cc5c(cc4n(Cc4ccc(OC)cc4)cc2-3)OCCO5)cc1`, the figure is 5.37 µg/mL (≈ 11.9 µM).
For `O=C(Nc1nc2c(s1)CCCC2)c1ccc(Cc2ccccc2)cc1`, the IC90 was 7.01 µg/mL (≈ 20.1 µM).
For `O=C(Nc1nnc(-c2ccccc2)o1)c1ccco1`, the IC90 was 2.78 µg/mL (≈ 10.9 µM).
